Columns and labels:
[1] = system: APP-transfected SH-SY5Y cells; experiment: MTT assay, cell viability of APP-transfected SH-SY5Y cells; type: cell-based, human; conditions: 0.5, 1, 5, 10 and 20 μM, 4 hours, compared to the untreated APP group
Description: The human APPswe/ind gene under the transcriptional control of the SV40 promoter/enhancer linked to the pCAX mammalian expression vector was obtained from addgene; The gene was deposited in the APP reservoir by Dennis Solkoe (plasmid 30145). The plasmid was amplified by DH5alpha strain in LB medium containing 50 μg/ml of ampicillin. The plasmid was purified by using a Qiagen plasmid mini kit (Cat #12143) and digested with EcoRV restriction enzyme and confirmed. The human neuroblastoma cell line SHYSY5Y used in the present in vitro experiments was cultured in DMEM medium containing 10% fetal bovine serum and 1% penicillin-streptomycin antibiotic (stock solutions concentrations of 10,000 U and 10,000 μg/ml, respectively)).
SH-SY5Y cells and HT-22 cells were inoculated into a culture flask containing the medium, and cultured until reaching the confluency of 70% to 75%. The pCAX vector with the APPswe/ind gene was transfected for 48 hours by using Lipofectamine 3000 (Life technologies) according to the manufacturers instructions.
APPswe/ind transfected SH-SY5Y cells were treated with novel peptide for 4 hours, followed by 3-[4, 5-dimethylthiazol-2-yl]-2,5-diphenyl tetrazolium bromide (MTT) analysis and Western blot analysis.
MTT assay was performed to measure the survival rate of cells treated with various concentrations of adiponectin receptor-activating novel peptide (5AA1). The cells were inoculated at 1×10^5 cells/well in a 96-well plate containing 200 μl of Dulbecco's modified Eagle's medium (DMEM). After 70% of cell confluence, SH-SY5Y cells were treated with 0.5 μM, 1 μM, 5 μM, 10 μM, and 20 μM of adiponectin receptor-activating novel peptide, and then cultured for 4 hours. At the end of the treatment, MTT (5 mg/ml in PBS) was added to each well, and the plate was cultured at a temperature of 37° C. for 4 hours. The formazan dissolved in dimethyl sulfoxide (DMSO) was added to the well and the plate was stirred in the agitator for 10 to 20 minutes. Then, the absorbance was measured at a wavelength of 550 nm to 570 nm (L1) and 620 nm to 650 nm (L2) by using a scanning microplate reader.
The L2 absorbance was measured for cell residuals and well imperfections, and the corrected absorbance (Abs.=L1−L2) of each well was calculated from 100× the absorbance of treated well/absorbance of the control well, and was used to measure the cell viability.

APP/PS1 mice = experiment: Thioflavin S staining / immunofluorescence analysis of amyloid plaques in brain; type: in vivo; conditions: cortex of APP/PS1 mice, compared to Veh-injected APP/PS1 mice, P<0.001
Description: Adiponectin receptor-activating novel peptide (5AA1) was IP administered to 10 week old APP/PS1 mice once every 2.5 days for 45 days, and then, to prepare a slide section, the brains of the mice were fixed by transcardial perfusion of ice-cold 4% paraformaldehyde. The brains were fixed in 4% paraformaldehyde for 72 hours, and then, transferred to 20% sucrose and maintained at a temperature of 4° C. for 72 hours. The brains were placed in an optimal cutting temperature (OCT) compound (A.O., USA), frozen in liquid nitrogen, and sectioned into coronal plane (14 μm) in CM 3050C cryostat (Leica, Germany). Pictures of tissue sections were taken on ProbeOn Plus charged slides (Fisher, USA).
Immunofluorescence analysis was performed by using minor modifications of the method described in the existing study (Shah et al., 2014; Shah et al., 2015). Slides containing tissue sections were washed twice with a 0.01 M PBS solution for 15 minutes. Proteinase K was added to the tissue sections, which were then cultured at a temperature of 37° C. for 5 minutes. The tissue sections were then reacted in a blocking solution (5% normal goat serum, 0.3% Triton X-100, PBS) for 1 hour. The slides were reacted overnight with the primary antibody (the same antibody used in the ‘Western blot analysis’) and then reacted with secondary TRITC- or FITC-conjugated antibodies (diluted 1:50 in PBS; Santa Cruz) at room temperature for 90 minutes. The slides were dipped in Prolong Antifade reagent (Molecular Probe, Eugene, Oreg., USA) and stained. All stained slides were analyzed with a confocal laser scanning microscope (Flouview FV 1000). Amyloid plaques were visualized in brain slices after Thioflavin S staining. The brain slices were washed twice with 0.01 M PBS for 10 minutes, and then immersed in fresh 1% Thioflavin S solution at room temperature for 10 minutes. The brain slices were then immersed in 70% ethanol for 5 minutes, then washed twice with water, counterstained with propidium iodide (PI) and covered with cover glass.
Morphological analysis and signals were analyzed with Image J software (open source software provided by the US NIH), and the analysis results were expressed as IOD (Integral Optical Density). The ratio of the amyloid deposit site in the proposed area was also quantified by using Image-J software.

| Substance | cell viability [1] | integrated density of the Aβ plaques in the cortex (Thioflavin S) (APP/PS1 mice) |
| --- | --- | --- |
| GPCYP (adiponectin receptor-activating peptide) [5AA3] | increased compared to the APP group, although the increase was not dependent on concentration | significantly reduced |
| GPCWP (adiponectin receptor-activating peptide) [5AA4] | increased compared to the APP group, although the increase was not dependent on concentration | significantly reduced |
| GPWGP (adiponectin receptor-activating peptide) [5AA2] | concentration-dependently increased | significantly reduced |

Reference: patent publication US10618937B2, “Method of treating Alzheimer's disease” (INDUSTRY-ACADEMIC COOPERATION FOUNDATION GYEONGSANG …, priority 2016, dated 2020)
